The results in this text go back to patent US10815276B2, “Cell penetrating peptides and methods of making and using thereof” (Entrada Therapeutics, Inc., priority 2014, dated 2020).

For orientation: Kd means a measure of binding affinity in units of concentration.

Assay [1] deals with cell type (e.g., HeLa cells). As to the kind of experiment: Cellular uptake efficiency of cyclic CPPs. Format: cell-based. The conditions noted are these: relative to cFΦR4 (290-1F, 100%). As for the experimental part:
In particular embodiments, uptake efficiency is determined by comparing (i) the amount of a cyclic cell-penetrating peptide of the invention internalized by a cell type (e.g., HeLa cells) to (ii) the amount of c(FΦRRRRQ) (290-1F) internalized by the same cell type. To measure cellular uptake efficiency, the cell type may be incubated in the presence of a cell-penetrating peptide of the invention for a specified period of time (e.g., 30 minutes, 1 hour, 2 hours, etc.) after which the amount of the cell-penetrating peptide internalized by the cell is quantified. Separately, the same concentration of c(FΦRRRRQ) (290-1F) is incubated in the presence of the cell type over the same period of time, and the amount of the second peptide internalized by the cell is quantified. Quantification can be achieved by fluorescently labeling the cell-penetrating peptide (e.g., with a FTIC dye) and measuring the fluorescence intensity using techniques well-known in the art.
(§1) Also discussed herein are the CPP sequences in Table 16. All uptake/delivery efficiencies are in Table 17 are relative to that of cFΦR4 (290-1F, 100%). SUV1 are small unilamellar vesicles that mimic the neutral outer membrane of mammalian cells [45% phosphatidylcholine (PC), 20% phosphatidylethanolamine (PE), 20% sphingomyelin (SM), and 15% cholesterol (CHO)]. SUV2 are small unilamellar vesicles that mimic the negatively charged endosomal membrane of mammalian cells [50% PC, 20% PE, 10% phosphatidylinositol (PI), and 20% bis(monoacylglycerol)phosphate].

Assay [2] deals with SUV1 (vesicles that mimic the neutral outer membrane of mammalian cells). As to the kind of experiment: Fluorescence polarization membrane binding, SUV1.
Text: as §1
(§2) Measurements were carried out fluorescence polarization using FITC-labeled cyclic peptides against increasing concentrations of vesicles. Experiments were performed at pH 7.4 and 5.5 (pH inside late endosomes).
For orientation: Polarisation of emitted light reports the rotation of a fluorescent probe.

Assay [3] concerns SUV2 (vesicles that mimic the negatively charged endosomal membrane of mammalian cells). Kind of assay: Fluorescence polarization membrane binding, SUV2.
Text: as §1, §2

For assay [4], the system named is HEK293 cells. As to the kind of experiment: Live-cell confocal microscopy of internalization. Format: cell-based, human. The conditions noted are these: for CAP fluorescence in cells (confocal): 5 μM pCAP peptide, 60 min; for Intracellular fluorescence of rhodamine B-labeled peptide: 5 μM peptide, 2 h. As for the experimental part:
To examine the internalization of rhodamine-labeled peptides, 5×10^4 HEK293 cells were plated in a 35 mm glass-bottomed microwell dish (MatTek). […] The cells were gently washed with DPBS twice and imaged on a Visitech Infinity 3 Hawk 2D-array live cell imaging confocal microscope. To detect the internalization of pCAP-containing peptides, HEK293 cells were similarly plated and incubated with the peptide solution (5 μM) at 37° C. for 60 min. After removal of the medium, the cells were gently washed with DPBS containing sodium pervanadate (1 mM) twice and incubated for 10 min in DPBS containing 5 μM nuclear staining dye DRAQS. The resulting cells were washed with DPBS twice and imaged on a spinning disk confocal microscope (UltraView Vox CSUX1 system). To monitor GFP internalization, 5×10^4 HEK293 cells were seeded in a 35 mm glass-bottomed microwell dish and cultured overnight. Cells were treated with cFΦR4-S-S-GFP (1 μM) at 37° C. for 2 h. After removal of the medium, the cells were incubated in DPBS containing 5 μM DRAQS for 10 min. The cells were washed with DPBS twice and imaged on a Visitech Infinity 3 Hawk 2D-array live cell imaging confocal microscope.

The subject of assay [5] is HeLa cells. Kind of assay: Cytoplasmic delivery of pCAP-containing peptides, flow cytometry. The conditions noted are these: 10 μM peptide, 2 h. In general terms: A flow cytometer gives signals particle by particle.
Setting [6] is: pH 7.4, read-out: Membrane Binding KD (mM) SUV1 pH 7.4.
Setting [7] is: pH 5.5, read-out: Membrane Binding KD (mM) SUV2 pH 5.5.
Setting [8] is: pH 7.4, read-out: Membrane Binding KD (mM) SUV2 pH 7.4.

Like-named read-outs stand apart in the source and are kept apart here. Non-standard residues stand in square brackets, D forms with d. Residues, ends and D or L forms follow the SMILES beside them. No end group written: not given here. *: point of attachment. Lys(5-FITC)NH2 = NC(=O)[C@H](CCCCNC(=S)Nc1ccc2c(c1)C(=O)OC21c2ccc(O)cc2Oc2cc(O)ccc21)N*; Ala(7-OPO3H2-coumarin-4-yl) = N[C@@H](Cc1cc(=O)oc2cc(OP(=O)(O)O)ccc12)C(=O)O; RhodamineB = CCN(CC)c1ccc2c(-c3ccccc3C(=O)*)c3ccc(=[N+](CC)CC)cc-3oc2c1; 2Nal = N[C@@H](Cc1ccc2ccccc2c1)C(=O)O; d2Nal = N[C@H](Cc1ccc2ccccc2c1)C(=O)O; AEEA = NCCOCCOCC(=O)O

For `N=C(N)NCCC[C@@H]1NC(=O)[C@H](Cc2ccccc2)NC(=O)[C@H](CCCNC(=N)N)NC(=O)[C@@H](CCCNC(=N)N)NC(=O)[C@H](CCC(=O)N[C@@H](CCCCNC(=S)Nc2ccc3c(c2)C(=O)OC32c3ccc(O)cc3Oc3cc(O)ccc32)C(N)=O)NC(=O)[C@H](CCCNC(=N)N)NC(=O)[C@H](Cc2ccc3ccccc3c2)NC1=O` [Peptide 290-10F, c(rRFRΦRQ)] (cyclo([dR]RFR[2Nal]RE(Lys(5-FITC)NH2))), the “Uptake Efficiency (%)” value in assay [1] was determined as 52%. Further, the Kd in assay [2] (setting [6]) amounted to 1.2 mM; in assay [3] (setting [7]), 0.17 mM; in assay [3] (setting [8]), 0.87 mM.

On to “Ac-DE(pCap)LI-NH2 (Ac-DE[Ala(7-OPO3H2-coumarin-4-yl)]LI-NH2; SMILES CC[C@H](C)[C@H](NC(=O)[C@H](CC(C)C)NC(=O)[C@H](Cc1cc(=O)oc2cc(OP(=O)(O)O)ccc12)NC(=O)[C@H](CCC(=O)O)NC(=O)[C@H](CC(=O)O)NC(C)=O)C(N)=O) [untagged PCP, reference compound]”, for which the “CAP fluorescence in cells (confocal)” value in assay [4] was “failed to enter cells”. The “Mean fluorescence intensity (MFI) of CAP” value in assay [5] is 30 AU.

In the case of `N=C(N)NCCC[C@@H]1NC(=O)[C@H](CCCNC(=N)N)NC(=O)[C@H](CCCNC(=N)N)NC(=O)[C@H](Cc2ccc3ccccc3c2)NC(=O)[C@H](Cc2ccccc2)NC(=O)[C@H](Cc2ccccc2)NC(=O)[C@H](CCC(=O)N[C@@H](CCCCNC(=S)Nc2ccc3c(c2)C(=O)OC32c3ccc(O)cc3Oc3cc(O)ccc32)C(N)=O)NC(=O)[C@H](CCCNC(=N)N)NC1=O` [Peptide 290-7F] (cyclo(FF[2Nal]RRRRE(Lys(5-FITC)NH2))), the “Uptake Efficiency (%)” value in assay [1] worked out at 134%. Also, the Kd in assay [2] (setting [6]) came to 1.65 mM; in assay [3] (setting [7]), 0.007 mM; in assay [3] (setting [8]) it was 0.11 mM.

With “RKKRRQRRR-miniPEG-DE(pCAP)LI (RKKRRQRRR[AEEA]DE[Ala(7-OPO3H2-coumarin-4-yl)]LI) [Tat-PCP, reference compound]”, in assay [4], the “CAP fluorescence in cells (confocal)” value is reported as “weak fluorescence”. Besides, the “Mean fluorescence intensity (MFI) of CAP” value in assay [5] is on record as 290 AU.

“cyclo(FΦRRRRQ)-RRRRR-K(Rho) (cyclo(F[2Nal]RRRRQRRRRRK(RhodamineB)); not fully specified (C-terminus, bridges); printed as cyclo(FΦRRRRQ)-RRRRR-K(Rho)) [cFΦR4-R5]”: the “Intracellular fluorescence of rhodamine B-labeled peptide” value in assay [4] was “both punctuate and diffuse fluorescence”.

With `N=C(N)NCCC[C@@H]1NC(=O)[C@H](CCCNC(=N)N)NC(=O)[C@H](CCCNC(=N)N)NC(=O)[C@H](CCCNC(=N)N)NC(=O)[C@H](Cc2ccc3ccccc3c2)NC(=O)[C@H](Cc2ccccc2)NC(=O)[C@H](CCC(=O)N[C@@H](CCCCNC(=S)Nc2ccc3c(c2)C(=O)OC32c3ccc(O)cc3Oc3cc(O)ccc32)C(N)=O)NC(=O)[C@H](CCCNC(=N)N)NC1=O` [Peptide 290-6F] (cyclo([2Nal]RRRRRE(Lys(5-FITC)NH2)F)), in assay [1], the “Uptake Efficiency (%)” value came to 184%. Also, the dissociation constant Kd was determined as 2.2 mM in assay [2] (setting [6]), 0.019 mM in assay [3] (setting [7]) and 0.12 mM in assay [3] (setting [8]).

Consider `N=C(N)NCCC[C@@H]1NC(=O)[C@H](CCCNC(=N)N)NC(=O)[C@H](CCCNC(=N)N)NC(=O)[C@H](Cc2ccc3ccccc3c2)NC(=O)[C@H](Cc2ccccc2)NC(=O)[C@H](CCC(=O)N[C@@H](CCCCNC(=S)Nc2ccc3c(c2)C(=O)OC32c3ccc(O)cc3Oc3cc(O)ccc32)C(N)=O)NC1=O` [Peptide 290-5F, c(FΦRRRQ)] (cyclo(F[2Nal]RRRE(Lys(5-FITC)NH2))), for which, in assay [1], the “Uptake Efficiency (%)” value was determined as 97%. The Kd in assay [2] (setting [6]) was found to be 10.1 mM; in assay [3] (setting [7]), 0.066 mM; in assay [3] (setting [8]) it was 2.4 mM.

`N=C(N)NCCC[C@@H]1NC(=O)[C@H](Cc2ccc3ccccc3c2)NC(=O)[C@@H](Cc2ccccc2)NC(=O)[C@H](Cc2ccccc2)NC(=O)[C@H](CCC(=O)N[C@@H](CCCCNC(=S)Nc2ccc3c(c2)C(=O)OC32c3ccc(O)cc3Oc3cc(O)ccc32)C(N)=O)NC(=O)[C@@H](CCCNC(=N)N)NC(=O)[C@H](CCCNC(=N)N)NC(=O)[C@@H](CCCNC(=N)N)NC1=O` [Peptide 290-12F, c(FfΦRrRrQ)] (cyclo(F[dF][2Nal]R[dR]R[dR]E(Lys(5-FITC)NH2))): the “Uptake Efficiency (%)” value in assay [1] was 681%. Moreover, the Kd was 0.8 mM in assay [2] (setting [6]), 0.004 mM in assay [3] (setting [7]) and 0.026 mM in assay [3] (setting [8]).

As to `N=C(N)NCCC[C@@H]1NC(=O)[C@H](Cc2ccc3ccccc3c2)NC(=O)[C@@H](Cc2ccccc2)NC(=O)[C@H](CCC(=O)N[C@@H](CCCCNC(=S)Nc2ccc3c(c2)C(=O)OC32c3ccc(O)cc3Oc3cc(O)ccc32)C(N)=O)NC(=O)[C@@H](CCCNC(=N)N)NC(=O)[C@H](CCCNC(=N)N)NC(=O)[C@@H](CCCNC(=N)N)NC1=O` [Peptide 290-9F, c(fΦRrRrQ)] (cyclo([dF][2Nal]R[dR]R[dR]E(Lys(5-FITC)NH2))), the “Uptake Efficiency (%)” value in assay [1] was 602%. Further, the Kd in assay [2] (pH 5.5, read-out: Membrane Binding KD (mM) SUV1 pH 5.5) was 0.81 mM; in assay [2] (setting [6]), 1.2 mM; in assay [3] (setting [7]), 0.012 mM; in assay [3] (setting [8]), 0.033 mM.

In the case of “cyclo(FΦRRRRQ)-AAAAA-K(Rho) (cyclo(F[2Nal]RRRRQAAAAAK(RhodamineB)); not fully specified (C-terminus, bridges); printed as cyclo(FΦRRRRQ)-AAAAA-K(Rho)) [cFΦR4-A5]”, in assay [4], the “Intracellular fluorescence of rhodamine B-labeled peptide” value was “both punctuate and diffuse fluorescence”.

`N=C(N)NCCC[C@@H]1NC(=O)[C@H](CCC(=O)N[C@@H](CCCCNC(=S)Nc2ccc3c(c2)C(=O)OC32c3ccc(O)cc3Oc3cc(O)ccc32)C(N)=O)NC(=O)[C@H](CCCNC(=N)N)NC(=O)[C@H](Cc2ccc3ccccc3c2)NC(=O)[C@H](CCCNC(=N)N)NC(=O)[C@H](Cc2ccccc2)NC(=O)[C@H](CCCNC(=N)N)NC1=O` [Peptide 290-3F, c(RRFRΦRQ)] (cyclo(RRFR[2Nal]RE(Lys(5-FITC)NH2))): the “Uptake Efficiency (%)” value in assay [1] came to 163%. For the same compound, the figures for the Kd in assay [2] (setting [6]), in assay [3] (setting [7]) and in assay [3] (setting [8]) were 0.22 mM, 0.26 mM and 0.4 mM, respectively.

Consider `N=C(N)NCCC[C@@H]1NC(=O)[C@@H](CCCNC(=N)N)NC(=O)[C@H](CCCNC(=N)N)NC(=O)[C@@H](CCCNC(=N)N)NC(=O)[C@@H](Cc2ccc3ccccc3c2)NC(=O)[C@H](Cc2ccccc2)NC(=O)[C@@H](CCC(=O)N[C@@H](CCCCNC(=S)Nc2ccc3c(c2)C(=O)OC32c3ccc(O)cc3Oc3cc(O)ccc32)C(N)=O)NC1=O` [Peptide 290-18F, c(FϕrRrRq)] (cyclo(F[d2Nal][dR]R[dR]R[dE](Lys(5-FITC)NH2))), for which the “Uptake Efficiency (%)” value in assay [1] is 205%. The Kd stood at 0.75 mM in assay [2] (setting [6]), 0.022 mM in assay [3] (setting [7]) and 0.04 mM in assay [3] (setting [8]).

Turning to `N=C(N)NCCC[C@@H]1NC(=O)[C@H](Cc2ccc3ccccc3c2)NC(=O)[C@@H](Cc2ccccc2)NC(=O)[C@H](CCC(=O)N[C@@H](CCCCNC(=S)Nc2ccc3c(c2)C(=O)OC32c3ccc(O)cc3Oc3cc(O)ccc32)C(N)=O)NC(=O)[C@H](CCCNC(=N)N)NC(=O)[C@@H](CCCNC(=N)N)NC(=O)[C@H](CCCNC(=N)N)NC(=O)[C@@H](CCCNC(=N)N)NC1=O` [Peptide 290-11F, c(fΦRrRrRQ)] (cyclo([2Nal]R[dR]R[dR]RE(Lys(5-FITC)NH2)[dF])), the “Uptake Efficiency (%)” value in assay [1] was 542%. The figures for the Kd in assay [2] (setting [6]), in assay [3] (setting [7]) and in assay [3] (setting [8]) were 2.7 mM, 0.019 mM and 0.092 mM, respectively.
